Laboratory results as given in ChEMBL document CHEMBL6182864, “Design, synthesis and biological evaluation of 3-amino-6-(2-hydroxyphenyl)pyridazin-4-aryl derivatives as SMARCA2/4 degraders” (Eur J Med Chem, 2025).
Blank lines part the entries; values can stand above or below the compound they belong to. Activity calls are given as the source filed them. No cut-off for these calls is given here.

Columns and labels:
MOLM-13 [1] = experiment: cells; conditions: Homo sapiens, MOLM-13, 72 h
MV4-11 [2] = experiment: cells; conditions: Homo sapiens, MV4-11, 72 h
MV4-11 [3] = experiment: Induction of apoptosis in human MV4-11 cells assessed as late apoptotic cells at 100 nM measured after 72 hrs by Annexin-V-FITC/propidium iodide staining based flow cytometry (reference value: 1.09%); assay type: functional
MV4-11 [4] = experiment: Induction of apoptosis in human MV4-11 cells assessed as viable cells at 100 nM measured after 72 hrs by Annexin-V-FITC/propidium iodide staining based flow cytometry (reference value: 89.49%); assay type: functional; conditions: read-out: Activity
MOLM-13 [5] = experiment: Induction of apoptosis in human MOLM-13 cells assessed as necrotic cells at 1000 nM measured after 72 hrs by Annexin-V-FITC/propidium iodide staining based flow cytometry (reference value: 0.28%); assay type: functional
MOLM-13 [6] = experiment: Induction of apoptosis in human MOLM-13 cells assessed as early apoptotic cells at 1000 nM measured after 72 hrs by Annexin-V-FITC/propidium iodide staining based flow cytometry (reference value: 5.57%); assay type: functional
MV4-11 [7] = experiment: Induction of apoptosis in human MV4-11 cells assessed as early apoptotic cells at 300 nM measured after 72 hrs by Annexin-V-FITC/propidium iodide staining based flow cytometry (reference value: 9.32%); assay type: functional
MV4-11 [8] = experiment: Induction of apoptosis in human MV4-11 cells assessed as late apoptotic cells at 1000 nM measured after 72 hrs by Annexin-V-FITC/propidium iodide staining based flow cytometry (reference value: 1.09%); assay type: functional
MOLM-13 [9] = experiment: Induction of apoptosis in human MOLM-13 cells assessed as early apoptotic cells at 100 nM measured after 72 hrs by Annexin-V-FITC/propidium iodide staining based flow cytometry (reference value: 5.57%); assay type: functional
MV4-11 [10] = experiment: Induction of apoptosis in human MV4-11 cells assessed as necrotic cells at 1000 nM measured after 72 hrs by Annexin-V-FITC/propidium iodide staining based flow cytometry (reference value: 0.1%); assay type: functional
MOLM-13 [11] = experiment: Induction of apoptosis in human MOLM-13 cells assessed as late apoptotic cells at 1000 nM measured after 72 hrs by Annexin-V-FITC/propidium iodide staining based flow cytometry (reference value: 3.87%); assay type: functional
MV4-11 [12] = experiment: Induction of apoptosis in human MV4-11 cells assessed as viable cells at 300 nM measured after 72 hrs by Annexin-V-FITC/propidium iodide staining based flow cytometry (reference value: 89.49%); assay type: functional; conditions: read-out: Activity
MOLM-13 [13] = experiment: Induction of apoptosis in human MOLM-13 cells assessed as necrotic cells at 300 nM measured after 72 hrs by Annexin-V-FITC/propidium iodide staining based flow cytometry (reference value: 0.28%); assay type: functional
MOLM-13 [14] = experiment: Induction of apoptosis in human MOLM-13 cells assessed as late apoptotic cells at 100 nM measured after 72 hrs by Annexin-V-FITC/propidium iodide staining based flow cytometry (reference value: 3.87%); assay type: functional
MOLM-13 [15] = experiment: Induction of apoptosis in human MOLM-13 cells assessed as viable cells at 100 nM measured after 72 hrs by Annexin-V-FITC/propidium iodide staining based flow cytometry (reference value: 90.28%); assay type: functional; conditions: read-out: Activity
MOLM-13 [16] = experiment: Induction of apoptosis in human MOLM-13 cells assessed as late apoptotic cells at 300 nM measured after 72 hrs by Annexin-V-FITC/propidium iodide staining based flow cytometry (reference value: 3.87%); assay type: functional
MV4-11 [17] = experiment: Induction of apoptosis in human MV4-11 cells assessed as early apoptotic cells at 100 nM measured after 72 hrs by Annexin-V-FITC/propidium iodide staining based flow cytometry (reference value: 9.32%); assay type: functional
MV4-11 [18] = experiment: Induction of apoptosis in human MV4-11 cells assessed as early apoptotic cells at 1000 nM measured after 72 hrs by Annexin-V-FITC/propidium iodide staining based flow cytometry (reference value: 9.32%); assay type: functional
MOLM-13 [19] = experiment: Induction of apoptosis in human MOLM-13 cells assessed as viable cells at 1000 nM measured after 72 hrs by Annexin-V-FITC/propidium iodide staining based flow cytometry (reference value: 90.28%); assay type: functional; conditions: read-out: Activity
MV4-11 [20] = experiment: Induction of apoptosis in human MV4-11 cells assessed as viable cells at 1000 nM measured after 72 hrs by Annexin-V-FITC/propidium iodide staining based flow cytometry (reference value: 89.49%); assay type: functional; conditions: read-out: Activity
MV4-11 [21] = experiment: Induction of apoptosis in human MV4-11 cells assessed as late apoptotic cells at 300 nM measured after 72 hrs by Annexin-V-FITC/propidium iodide staining based flow cytometry (reference value: 1.09%); assay type: functional
MV4-11 [22] = experiment: Induction of apoptosis in human MV4-11 cells assessed as necrotic cells at 100 nM measured after 72 hrs by Annexin-V-FITC/propidium iodide staining based flow cytometry (reference value: 0.1%); assay type: functional
MOLM-13 [23] = experiment: Induction of apoptosis in human MOLM-13 cells assessed as viable cells at 300 nM measured after 72 hrs by Annexin-V-FITC/propidium iodide staining based flow cytometry (reference value: 90.28%); assay type: functional; conditions: read-out: Activity
MOLM-13 [24] = experiment: Induction of apoptosis in human MOLM-13 cells assessed as necrotic cells at 100 nM measured after 72 hrs by Annexin-V-FITC/propidium iodide staining based flow cytometry (reference value: 0.28%); assay type: functional
MV4-11 [25] = experiment: Induction of apoptosis in human MV4-11 cells assessed as necrotic cells at 300 nM measured after 72 hrs by Annexin-V-FITC/propidium iodide staining based flow cytometry (reference value: 0.1%); assay type: functional
MOLM-13 [26] = experiment: Induction of apoptosis in human MOLM-13 cells assessed as early apoptotic cells at 300 nM measured after 72 hrs by Annexin-V-FITC/propidium iodide staining based flow cytometry (reference value: 5.57%); assay type: functional
MOLM-13 [27] = experiment: Induction of SMARCA4 degradation in human MOLM-13 cells at 10 uM measured after 72 hrs by Western blotting analysis; assay type: cell-based
MOLM-13 [28] = experiment: Induction of SMARCA2 degradation in human MOLM-13 cells at 10 uM measured after 72 hrs by Western blotting analysis; assay type: cell-based

SMILES: Cc1ncsc1-c1ccc(CNC(=O)[C@@H]2C[C@@H](O)CN2C(=O)[C@@H](NC(=O)Cc2ccc(-c3cc(-c4ccccc4O)nnc3N)cc2)C(C)(C)C)cc1
IC50 (MOLM-13 [1]): 2.73 µM | IC50 (MV4-11 [2]): 0.71 µM

SMILES: Cc1ncsc1-c1ccc([C@H](C)NC(=O)[C@@H]2C[C@@H](O)CN2C(=O)[C@@H](NC(=O)COc2ccc(-c3cc(-c4ccccc4O)nnc3N)cc2)C(C)(C)C)cc1
IC50 (MOLM-13 [1]): 0.46 µM | IC50 (MV4-11 [2]): 0.12 µM

SMILES: Cc1ncsc1-c1ccc([C@H](C)NC(=O)[C@@H]2C[C@@H](O)CN2C(=O)[C@@H](NC(=O)CCc2ccc(-c3cc(-c4ccccc4O)nnc3N)cc2)C(C)(C)C)cc1
IC50 (MOLM-13 [1]): 8.73 µM | IC50 (MV4-11 [2]): 3.11 µM

SMILES: Cc1ncsc1-c1ccc([C@H](C)NC(=O)[C@@H]2C[C@@H](O)CN2C(=O)[C@@H](NC(=O)CN2CCN(c3cc(-c4ccccc4O)nnc3N)CC2)C(C)(C)C)cc1
Activity (MV4-11 [3]): 22.53% | viability at 0.1 µM (MV4-11 [4]): 24% | Activity (MOLM-13 [5]): 0.28% | Activity (MOLM-13 [6]): 58.07% | Activity (MV4-11 [7]): 52.83% | Activity (MV4-11 [8]): 24.02% | Activity (MOLM-13 [9]): 39.38% | Activity (MV4-11 [10]): 1.01% | Activity (MOLM-13 [11]): 27.77% | viability at 0.3 µM (MV4-11 [12]): 19.1% | Activity (MOLM-13 [13]): 0.31% | Activity (MOLM-13 [14]): 6.71% | viability at 0.1 µM (MOLM-13 [15]): 53.7% | Activity (MOLM-13 [16]): 15.85% | Activity (MV4-11 [17]): 52.03% | Activity (MV4-11 [18]): 56.45% | viability at 1 µM (MOLM-13 [19]): 13.9% | viability at 1 µM (MV4-11 [20]): 18.5% | Activity (MV4-11 [21]): 26.43% | Activity (MV4-11 [22]): 1.43% | viability at 0.3 µM (MOLM-13 [23]): 21.8% | Activity (MOLM-13 [24]): 0.25% | Activity (MV4-11 [25]): 1.63% | Activity (MOLM-13 [26]): 62.09%

SMILES: Cc1ncsc1-c1ccc(CNC(=O)[C@@H]2C[C@@H](O)CN2C(=O)[C@@H](NC(=O)CCc2ccc(-c3cc(-c4ccccc4O)nnc3N)cc2)C(C)(C)C)cc1
IC50 (MOLM-13 [1]): 3.87 µM | IC50 (MV4-11 [2]): 2.14 µM

SMILES: Cc1ncsc1-c1ccc(CNC(=O)[C@@H]2C[C@@H](O)CN2C(=O)[C@@H](NC(=O)CCCc2ccc(-c3cc(-c4ccccc4O)nnc3N)cc2)C(C)(C)C)cc1
IC50 (MOLM-13 [1]): 1.45 µM | IC50 (MV4-11 [2]): 0.02 µM

SMILES: Cc1ncsc1-c1ccc(CNC(=O)[C@@H]2C[C@@H](O)CN2C(=O)[C@@H](NC(=O)C2(c3ccc(-c4cc(-c5ccccc5O)nnc4N)cc3)CC2)C(C)(C)C)cc1
IC50 (MOLM-13 [1]): 0.26 µM | IC50 (MV4-11 [2]): 0.03 µM

SMILES: NS(=O)(=O)OC[C@@H]1C[C@@H](n2ccc3c(N[C@H]4CCc5ccccc54)ncnc32)C[C@@H]1O
Activity (MOLM-13 [27]): Active | Activity (MOLM-13 [28]): Active

SMILES: CC(C)C[C@H](NC(=O)[C@H](Cc1ccccc1)NC(=O)c1cnccn1)B(O)O
Activity (MOLM-13 [27]): Active | Activity (MOLM-13 [28]): Active

Second part, the compound after the results:

IC50 (MOLM-13 [1]): 0.85 µM | IC50 (MV4-11 [2]): 0.3 µM
SMILES: Cc1ncsc1-c1ccc(CNC(=O)[C@@H]2C[C@@H](O)CN2C(=O)[C@@H](NC(=O)COc2ccc(-c3cc(-c4ccccc4O)nnc3N)cc2)C(C)(C)C)cc1

IC50 (MOLM-13 [1]): 0.12 µM | IC50 (MV4-11 [2]): 0.34 µM
SMILES: Cc1ncsc1-c1ccc([C@H](C)NC(=O)[C@@H]2C[C@@H](O)CN2C(=O)[C@@H](NC(=O)CCCc2ccc(-c3cc(-c4ccccc4O)nnc3N)cc2)C(C)(C)C)cc1

IC50 (MOLM-13 [1]): 5.1 µM | IC50 (MV4-11 [2]): 5.75 µM
SMILES: Cc1ncsc1-c1ccc([C@H](C)NC(=O)[C@@H]2C[C@@H](O)CN2C(=O)[C@@H](NC(=O)CSc2ccc(-c3cc(-c4ccccc4O)nnc3N)cc2)C(C)(C)C)cc1

IC50 (MOLM-13 [1]): 3.82 µM | IC50 (MV4-11 [2]): 0.24 µM
SMILES: Cc1ncsc1-c1ccc([C@H](C)NC(=O)[C@@H]2C[C@@H](O)CN2C(=O)[C@@H](NC(=O)Cc2ccc(-c3cc(-c4ccccc4O)nnc3N)cc2)C(C)(C)C)cc1

IC50 (MOLM-13 [1]): 6.85 µM | IC50 (MV4-11 [2]): 3.88 µM
SMILES: Cc1ncsc1-c1ccc([C@H](C)NC(=O)[C@@H]2C[C@@H](O)CN2C(=O)[C@@H](NCc2ccc(-c3cc(-c4ccccc4O)nnc3N)cc2)C(C)(C)C)cc1

IC50 (MOLM-13 [1]): 7.78 µM | IC50 (MV4-11 [2]): 5.77 µM
SMILES: Cc1ncsc1-c1ccc(CNC(=O)[C@@H]2C[C@@H](O)CN2C(=O)[C@@H](NC(=O)CSc2ccc(-c3cc(-c4ccccc4O)nnc3N)cc2)C(C)(C)C)cc1

IC50 (MOLM-13 [1]): 9.61 µM | IC50 (MV4-11 [2]): 5.07 µM
SMILES: Cc1ncsc1-c1ccc(CNC(=O)[C@@H]2C[C@@H](O)CN2C(=O)[C@@H](NC(=O)c2ccc(-c3cc(-c4ccccc4O)nnc3N)cc2)C(C)(C)C)cc1

IC50 (MOLM-13 [1]): > 10 µM | IC50 (MV4-11 [2]): > 10 µM
SMILES: Cc1ncsc1-c1ccc([C@H](C)NC(=O)[C@@H]2C[C@@H](O)CN2C(=O)[C@@H](NC(=O)c2ccc(-c3cc(-c4ccccc4O)nnc3N)cc2)C(C)(C)C)cc1

IC50 (MOLM-13 [1]): 4.67 µM | IC50 (MV4-11 [2]): 4.78 µM
SMILES: Cc1ncsc1-c1ccc(CNC(=O)[C@@H]2C[C@@H](O)CN2C(=O)[C@@H](NCc2ccc(-c3cc(-c4ccccc4O)nnc3N)cc2)C(C)(C)C)cc1
